Assay [1] addresses EGFR (human), P00533 [WT]. The following applies: a431.
The target in assay [2] is EGFR (Human), P00533 [T790M/L858R]. The experiment in a line: Cell-Based Assay. The following applies: h1975.
Assay [3] addresses EGFR (Human), P00533 [Inhibition of EGFR Dependent Proliferation of HCC827(.Delta.746-750) cells]. The experiment in a line: Cell-Based Assay.
Assay [4] addresses EGFR (Human), P00533 [Assessment of Phosphorylation of EGFR(.Delta.746-750) in HCC827 Cells]. The experiment in a line: Cell-Based Assay.
In assay [5] the target is EGFR (human), P00533 [WT]. The experiment in a line: Cell-Based Assay. The following applies: a431.
Assay [6] deals with EGFR (Human), P00533 [T790M/L858R]. The experiment in a line: Cell-Based Assay. The following applies: h1975. This is another data set of the same source.

The structures appear in SMILES notation. “And” between values parts separate entries of the source, which are not always exact repeats. Equal entries are not always repeated.

EGFR (human), P00533 [WT], sequence (P00533 whole entry, looked up): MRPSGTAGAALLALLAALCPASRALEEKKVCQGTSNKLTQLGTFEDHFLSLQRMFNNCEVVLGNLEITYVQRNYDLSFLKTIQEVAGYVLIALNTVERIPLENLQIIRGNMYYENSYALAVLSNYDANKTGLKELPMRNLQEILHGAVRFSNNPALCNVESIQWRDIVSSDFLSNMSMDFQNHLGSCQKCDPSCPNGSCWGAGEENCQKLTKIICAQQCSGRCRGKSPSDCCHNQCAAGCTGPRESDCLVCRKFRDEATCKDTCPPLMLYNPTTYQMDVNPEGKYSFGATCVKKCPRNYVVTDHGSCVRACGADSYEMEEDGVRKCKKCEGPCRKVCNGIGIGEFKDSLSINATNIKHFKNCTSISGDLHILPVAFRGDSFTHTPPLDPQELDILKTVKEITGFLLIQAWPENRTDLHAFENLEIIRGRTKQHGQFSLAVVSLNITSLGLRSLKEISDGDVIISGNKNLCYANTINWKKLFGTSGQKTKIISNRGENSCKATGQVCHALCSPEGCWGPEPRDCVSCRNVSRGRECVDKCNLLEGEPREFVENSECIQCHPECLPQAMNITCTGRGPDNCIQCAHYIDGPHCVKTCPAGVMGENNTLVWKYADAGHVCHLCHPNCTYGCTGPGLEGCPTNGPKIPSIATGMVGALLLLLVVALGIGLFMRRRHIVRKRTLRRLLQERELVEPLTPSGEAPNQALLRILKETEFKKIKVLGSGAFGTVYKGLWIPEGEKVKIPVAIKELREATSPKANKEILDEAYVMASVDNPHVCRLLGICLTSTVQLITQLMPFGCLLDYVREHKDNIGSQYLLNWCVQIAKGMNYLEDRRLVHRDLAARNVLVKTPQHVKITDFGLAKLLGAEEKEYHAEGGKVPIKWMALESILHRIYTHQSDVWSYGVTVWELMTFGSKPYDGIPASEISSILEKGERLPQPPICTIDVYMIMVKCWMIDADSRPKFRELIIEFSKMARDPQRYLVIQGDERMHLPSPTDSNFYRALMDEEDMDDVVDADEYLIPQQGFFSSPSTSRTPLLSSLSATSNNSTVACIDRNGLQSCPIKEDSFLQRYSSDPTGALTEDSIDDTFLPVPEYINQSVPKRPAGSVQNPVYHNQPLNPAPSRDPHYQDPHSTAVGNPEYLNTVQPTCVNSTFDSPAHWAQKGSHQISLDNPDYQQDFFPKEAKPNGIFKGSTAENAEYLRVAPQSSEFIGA
EGFR (Human), P00533 [Inhibition of EGFR Dependent Proliferation of HCC827(.Delta.746-750) cells], sequence (P00533 whole entry, looked up, stated change not applied): as the sequence (P00533 whole entry, looked up) above
EGFR (Human), P00533 [Assessment of Phosphorylation of EGFR(.Delta.746-750) in HCC827 Cells], sequence (P00533 whole entry, looked up, stated change not applied): as the sequence (P00533 whole entry, looked up) above
EGFR (Human), P00533 [T790M/L858R], sequence (P00533 whole entry T790M/L858R, looked up): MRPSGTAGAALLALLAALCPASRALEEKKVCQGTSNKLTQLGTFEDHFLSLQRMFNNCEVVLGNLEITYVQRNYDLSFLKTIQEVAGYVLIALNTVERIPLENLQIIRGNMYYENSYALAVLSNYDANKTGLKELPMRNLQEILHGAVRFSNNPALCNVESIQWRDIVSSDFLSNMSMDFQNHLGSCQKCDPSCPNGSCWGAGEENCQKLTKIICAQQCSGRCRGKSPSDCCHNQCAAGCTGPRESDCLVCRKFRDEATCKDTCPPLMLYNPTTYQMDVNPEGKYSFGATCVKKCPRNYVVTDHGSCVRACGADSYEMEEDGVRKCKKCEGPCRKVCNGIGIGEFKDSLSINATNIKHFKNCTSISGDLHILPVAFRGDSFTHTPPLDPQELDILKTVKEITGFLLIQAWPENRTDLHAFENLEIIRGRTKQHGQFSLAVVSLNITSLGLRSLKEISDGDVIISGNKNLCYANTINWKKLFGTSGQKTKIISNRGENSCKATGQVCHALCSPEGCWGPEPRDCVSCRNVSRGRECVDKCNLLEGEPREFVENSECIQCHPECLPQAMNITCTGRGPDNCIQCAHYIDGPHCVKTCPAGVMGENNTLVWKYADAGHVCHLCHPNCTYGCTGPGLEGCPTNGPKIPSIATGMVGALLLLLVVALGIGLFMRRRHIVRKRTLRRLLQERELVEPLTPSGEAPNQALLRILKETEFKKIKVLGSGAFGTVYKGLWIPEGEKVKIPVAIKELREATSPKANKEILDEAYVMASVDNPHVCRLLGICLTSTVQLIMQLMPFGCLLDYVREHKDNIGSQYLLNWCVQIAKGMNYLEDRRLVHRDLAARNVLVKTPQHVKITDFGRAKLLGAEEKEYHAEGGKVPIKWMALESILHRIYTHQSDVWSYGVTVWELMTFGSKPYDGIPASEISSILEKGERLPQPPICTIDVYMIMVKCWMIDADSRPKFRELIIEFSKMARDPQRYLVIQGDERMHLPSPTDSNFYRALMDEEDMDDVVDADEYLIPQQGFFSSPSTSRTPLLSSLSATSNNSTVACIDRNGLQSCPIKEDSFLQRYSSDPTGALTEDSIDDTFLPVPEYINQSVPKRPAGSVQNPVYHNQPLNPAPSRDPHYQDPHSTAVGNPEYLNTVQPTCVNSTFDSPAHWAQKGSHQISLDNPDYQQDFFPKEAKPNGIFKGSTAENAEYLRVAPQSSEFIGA

Regarding `C=CC(=O)Nc1cccc(-n2c(=O)cc(C)c3cnc(Nc4cnn(C)c4)nc32)c1`, the IC50 in assay [1] came out at 16600 nM; in assay [2], 62 nM; in assay [3], 77 nM.
The matching figures for `C/C=C/C(=O)Nc1cccc(-n2c(=O)cc(C)c3cnc(Nc4ccc(OCCN(C)C)cc4OC)nc32)c1`: 24800 nM, 870 nM and 1480 nM.
As for `C=CC(=O)Nc1cccc(-n2c(=O)cc(C)c3cnc(Nc4ccc(N(C)CCN(C)C)cc4OC(F)F)nc32)c1`, the figures for the IC50 in assay [1], in assay [2] and in assay [3] were 884 nM, 24 nM and 83 nM, respectively.
`C=CC(=O)Nc1cccc(-n2c(=O)cc(C)c3cnc(Nc4ccc(C5CCNCC5)cc4)nc32)c1`: the IC50 in assay [2] turned out to be 180 nM.
As for `C=CC(=O)Nc1cccc(-n2c(=O)cc(C)c3cnc(Nc4ccc(N(C)CCN5CCCC5)cc4OC)nc32)c1`, the IC50 turned out to be 1410 nM in assay [1], 128 nM in assay [2] and 272 nM in assay [3].
`C=CC(=O)Nc1cccc(-n2c(=O)cc(C)c3cnc(Nc4cn([C@H]5CCN(C)C5)nc4C)nc32)c1`: the IC50 came to 1280 nM in assay [1], 18 nM in assay [2] and 49 nM in assay [3].
The matching figures for `C=CC(=O)Nc1cccc(-n2c(=O)cc(C)c3cnc(Nc4cn(C5CCN(C)CC5)nc4C)nc32)c1.C=CC(=O)Nc1cccc(-n2c(=O)cc(C)c3cnc(Nc4cnn(C5CCN(C)CC5)c4C)nc32)c1`: 1820 nM, 310 nM and 1050 nM.
For `C=CC(=O)Nc1cccc(-n2c(=O)cc(C)c3cnc(Nc4ccc(N(C)CCO)cc4OC)nc32)c1`, in that order: 1690 nM, 35 nM and 483 nM.
The matching figures for `C/C=C/C(=O)Nc1cccc(-n2c(=O)cc(C)c3cnc(Nc4ccc(N(C)CCN(C)C)cc4OC)nc32)c1`: 18000 nM, 336 nM and 1370 nM.
For the compound `C=CC(=O)Nc1cccc(-n2c(=O)cc(C)c3cnc(Nc4cccc(F)c4)nc32)c1`, the IC50 in assay [2] stood at 714 nM.
Same read-out and setting: next, `C=CC(=O)Nc1cccc(-n2c(=O)cc(C)c3cnc(Nc4ccnn4CC)nc32)c1`: 911 nM.
Take `C=CC(=O)Nc1cccc(-n2c(=O)cc(C)c3cnc(Nc4cn(C)nc4Cl)nc32)c1`: the IC50 in assay [1] was determined as 2870 nM; in assay [2], 16 nM; in assay [3], 30 nM.
`C=CC(=O)Nc1cccc(-n2c(=O)cc(C)c3cnc(Nc4ccc(OCCCN(C)C)cc4)nc32)c1`: the half-inhibitory concentration (IC50) in assay [1] is 1550 nM; in assay [2], 27 nM; in assay [3], 159 nM.
Consider `C=CC(=O)Nc1cccc(-n2c(=O)cc(C)c3cnc(Nc4ccc(N(C)CCN(C)C)cc4OC)nc32)c1`, for which the IC50 in assay [1] was determined as 1400 nM; in assay [2] it was 8 nM; in assay [4] it was 24 nM; in assay [3], 22 nM; in assay [5], 689 nM; in assay [6], 7.8 nM.
For the compound `C=CC(=O)Nc1cccc(-n2c(=O)ccc3cnc(Nc4ccc(N5CCN(C)CC5)cc4OC)nc32)c1`, the IC50 in assay [4] worked out at 3.4 nM. This counts as single-digit nanomolar.
As for `C=CC(=O)Nc1cccc(-n2c(=O)cc(C)c3cnc(Nc4cn(C)nc4C)nc32)c1`, the results for the IC50 in assay [1], in assay [2] and in assay [3] were 1250 nM, 16 nM and 22 nM, respectively.
Take `C=CC(=O)Nc1cccc(-n2c(=O)cc(C)c3cnc(Nc4ccc(O[C@H]5CCN(C)C5)cc4OC)nc32)c1`: the IC50 in assay [1] worked out at 2110 nM; in assay [2], 10.3 nM.
For the compound `C=CC(=O)Nc1cccc(-n2c(=O)cc(C)c3cnc(Nc4ccc(N5CCN(C(C)=O)CC5)cc4Cl)nc32)c1`, the values for the IC50 in assay [1], in assay [2] and in assay [3] were 4270 nM, 9 nM and 236 nM, respectively.
The matching figures for `C=CC(=O)Nc1cccc(-n2c(=O)cc(C)c3cnc(Nc4ccc(N5CCC(C(C)(C)O)CC5)cc4)nc32)c1`: 6670 nM, 176 nM and 401 nM.
Take `C=CC(=O)Nc1cccc(-n2c(=O)cc(C)c3cnc(Nc4ccc(C5CCN(C)CC5)cc4)nc32)c1`: the figures for the IC50 in assay [2] and in assay [3] were 11 nM and 27 nM, respectively.
With `C=CC(=O)Nc1cccc(-n2c(=O)c(OC)cc3cnc(Nc4ccc(N5CCN(C)CC5)cc4OC)nc32)c1`, the concentration for half-maximal inhibition (IC50) was determined as 201 nM in assay [1], 272 nM in assay [2] and 61 nM in assay [3].
Regarding `C=CC(=O)Nc1cccc(-n2c(=O)cc(C)c3cnc(Nc4ccc(N5CCN(C)CC5)c(C)c4)nc32)c1`, the IC50 in assay [1] was 653 nM; in assay [2] it was 5.8 nM; in assay [3], 36 nM.
Regarding `C=CC(=O)Nc1cccc(-n2c(=O)cc(C)c3cnc(Nc4cnn(CCN(C)C)c4)nc32)c1`, the concentration for half-maximal inhibition (IC50) was 162 nM in assay [2] and 305 nM in assay [3].
`C=CC(=O)Nc1cccc(-n2c(=O)cc(C)c3cnc(Nc4ccc(N(C)CCN(C)C)cc4Cl)nc32)c1`: the figures for the IC50 in assay [1], in assay [2] and in assay [3] were 3100 nM, 13 nM and 21 nM, respectively.
`C=CC(=O)N1CC[C@H](Cn2c(=O)cc(C)c3cnc(Nc4ccc(N5CCN(C)CC5)cc4OC)nc32)C1` displayed an IC50 in assay [2] of 175 nM.
Same read-out and setting: next, `C=CC(=O)Nc1cccc(-n2c(=O)cc(C)c3cnc(Nc4cc(C)nn4C)nc32)c1`: 762 nM.
In the case of `C=CC(=O)Nc1cccc(-n2c(=O)ccc3cnc(Nc4cn(C)nc4C)nc32)c1`, the IC50 amounted to 7 nM in assay [2] and 2 nM in assay [3].
For `C=CC(=O)Nc1cccc(-n2c(=O)cc(C)c3cnc(Nc4ccc(N(C)CCN(C)C)cc4)nc32)c1`, in that order: 8 nM and 23 nM.
For `C=CC(=O)Nc1cccc(-n2c(=O)cc(C)c3cnc(Nc4ccc(N5CCN(C)CC5)c(F)c4)nc32)c1`, the concentration for half-maximal inhibition (IC50) in assay [1] came to 1260 nM; in assay [2], 28 nM; in assay [3], 86 nM.
Regarding `C=CC(=O)Nc1cccc(-n2c(=O)ccc3cnc(Nc4ccc(NC5CN(CCF)C5)cc4OC)nc32)c1`, in assay [4], the IC50 was 5 nM.
In the case of `C=CC(=O)Nc1cccc(-n2c(=O)c(Cc3ccccc3)cc3cnc(Nc4ccc(N5CCN(C)CC5)cc4OC)nc32)c1`, the figures for the IC50 in assay [1], in assay [2] and in assay [3] were 250 nM, 4 nM and 18 nM, respectively.
For the compound `C=CC(=O)Nc1cccc(-n2c(=O)cc(C)c3cnc(Nc4ccc(N5CCN(C)CC5)cc4OC)nc32)c1`, the IC50 in assay [4] amounted to 8 nM.
On to `C=CC(=O)Nc1cccc(-n2c(=O)c(OC)c(C)c3cnc(Nc4ccc(N5CCN(C)CC5)cc4OC)nc32)c1`, for which the results for the half-maximal inhibitory concentration (IC50) in assay [1], in assay [2] and in assay [3] were 1390 nM, 10 nM and 41 nM, respectively.
For `C=CC(=O)Nc1cccc(-n2c(=O)cc(C)c3cnc(Nc4ccc(OCCN(C)C)cc4F)nc32)c1`, in that order: 1340 nM, 51 nM and 76 nM.
The matching figures for `C=CC(=O)Nc1cccc(-n2c(=O)cc(C)c3cnc(Nc4ccc(N(C)CCN5CCCC5=O)cc4OC)nc32)c1`: 4240 nM, 108 nM and 401 nM.
For `C=CC(=O)Nc1cccc(-n2c(=O)cc(C)c3cnc(Nc4ccc(N(C)CCN(C)C)cc4C)nc32)c1`, in that order: 1150 nM, 9 nM and 124 nM.
In the case of `C=CC(=O)Nc1cccc(-n2c(=O)cc(C)c3cnc(Nc4ccc(OCCN(C)C)cc4)nc32)c1`, the half-maximal inhibitory concentration (IC50) was 1030 nM in assay [1]; 9 nM in assay [2]; 17 nM and 10 nM in assay [3].
For the compound `C=CC(=O)Nc1cccc(-n2c(=O)cc(C)c3cnc(Nc4ccc(OCCOC)cc4)nc32)c1`, the IC50 in assay [1] stood at 2410 nM; in assay [2], 42 nM; in assay [3] it was 249 nM.
Compound `C=CC(=O)Nc1cccc(-n2c(=O)cc(C)c3cnc(Nc4cnn(C(C)C)c4)nc32)c1` registered an IC50 in assay [2] of 101 nM. This counts as sub-micromolar.
Compound `C=CC(=O)Nc1cccc(-n2c(=O)cc(C)c3cnc(Nc4cn(C)nc4C(F)(F)F)nc32)c1` yielded a half-inhibitory concentration (IC50) in assay [2] of 53 nM.
On to `C=CC(=O)Nc1cccc(-n2c(=O)cc(C)c3cnc(Nc4ccc(OCCN(C)C)cc4Cl)nc32)c1`, for which the IC50 in assay [1] is 832 nM; in assay [2], 4.7 nM; in assay [3] it was 46 nM.
`C=CC(=O)Nc1cccc(-n2c(=O)cc(C)c3cnc(Nc4ccc(OCCN(C)C)cc4OC)nc32)c1`: the IC50 in assay [1] was 2400 nM; in assay [2], 4 nM; in assay [4], 17 nM; in assay [3], 28 nM; in assay [5], 511 nM; in assay [6], 4 nM.

For the origin of these results see the Kinase Knowledgebase extract (Sharma et al. 2016).
